Target: T1, VP16dEcR/RXR (Drosophila melanogaster, UniProt P34021)
T1 construct: expressed in transfected cells; host or cells: CHO
T1 sequence (P34021 252-878 limits assumed): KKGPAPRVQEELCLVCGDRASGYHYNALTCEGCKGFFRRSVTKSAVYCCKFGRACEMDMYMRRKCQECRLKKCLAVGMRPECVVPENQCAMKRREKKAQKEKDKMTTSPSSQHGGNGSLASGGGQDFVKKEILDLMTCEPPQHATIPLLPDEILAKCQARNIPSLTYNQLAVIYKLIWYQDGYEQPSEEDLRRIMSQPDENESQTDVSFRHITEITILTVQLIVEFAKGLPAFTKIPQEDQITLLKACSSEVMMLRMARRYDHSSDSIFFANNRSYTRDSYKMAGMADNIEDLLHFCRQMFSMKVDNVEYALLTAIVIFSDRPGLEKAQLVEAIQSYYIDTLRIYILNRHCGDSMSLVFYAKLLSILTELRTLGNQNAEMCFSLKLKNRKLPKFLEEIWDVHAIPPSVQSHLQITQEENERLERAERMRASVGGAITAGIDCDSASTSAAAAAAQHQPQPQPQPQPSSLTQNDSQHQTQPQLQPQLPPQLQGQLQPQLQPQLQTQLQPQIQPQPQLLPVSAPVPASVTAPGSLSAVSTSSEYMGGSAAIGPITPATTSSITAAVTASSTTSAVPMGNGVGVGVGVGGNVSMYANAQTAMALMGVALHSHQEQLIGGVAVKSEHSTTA
T1 sequence (P28700 1-467 partner): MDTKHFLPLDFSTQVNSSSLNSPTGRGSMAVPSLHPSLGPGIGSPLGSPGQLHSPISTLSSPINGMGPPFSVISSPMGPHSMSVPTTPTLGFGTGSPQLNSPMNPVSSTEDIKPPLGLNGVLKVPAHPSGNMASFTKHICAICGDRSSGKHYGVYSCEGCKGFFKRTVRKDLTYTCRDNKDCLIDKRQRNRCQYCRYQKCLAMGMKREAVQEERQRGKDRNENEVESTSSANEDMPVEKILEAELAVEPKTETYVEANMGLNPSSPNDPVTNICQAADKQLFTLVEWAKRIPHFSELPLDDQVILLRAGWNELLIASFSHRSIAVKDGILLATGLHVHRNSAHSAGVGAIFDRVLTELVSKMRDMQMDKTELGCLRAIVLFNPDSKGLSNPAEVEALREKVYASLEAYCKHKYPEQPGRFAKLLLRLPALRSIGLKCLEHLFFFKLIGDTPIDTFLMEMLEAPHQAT
Assay: VP16dEcR with RXR, (EcRE)5-ΔMTV reporter in CHO cells
Assay type: cell-based
Set-up: key to MurA (inducibility): (+) designates a change in transcriptional level that exceeds 2.5-fold; (++) indicates a response at a lower dosage than other EcR forms
Description: These experiments employed a mammalian cell culture system using Chinese hamster ovary cells (CHO) to evaluate the transcriptional function of Drosophila melanogaster EcR and USP using methods described previously (U.S. Patent Application Publication No: 2005/0049230; Henrich et al, 2003). Cells were seeded in 6-well polypropylene culture plates (Falcon) with 10^5 cells per well on the day prior to transfection. Transfection was subsequently performed using either calcium phosphate (Kitareewan et al., 1996, Mol. Biol. Cell, 7:1153-1196) or a GenePorter reagent (Gene Therapy Systems, Inc; San Diego, Calif.) following manufacturer's protocols. Each well received 1.25 μg of (EcRE)5-ΔMTV-CAT (five copies of the hsp27 EcRE inserted into an mouse mammary tumor virus (MTV) promoter upstream of the chloramphenicol acetyltransferase (CAT) gene) or (EcRE)5-ΔMTV-LUC (the same promoter attached to firefly luciferase), 1.25 μg of pCH111 (SV40 early promoter linked to the β-galactosidase gene) to normalize CAT activity, and 0.25 μg of each expression plasmid (EcR, FXR, RXR, USP) that was tested. The cells were incubated with plasmid DNA for seven hours and then washed with 1×PBS. Muristerone A (murA; Alexis Biochemicals) or 20-hydroxyecdysone (20E; Sigma) dissolved in ethanol to a concentration of 10 mM was diluted as necessary to the final assay concentration (FAC) in 2 ml of fresh incubation medium that was then applied to the cells. Similarly, JHIII (Sigma) was dissolved in dimethyl sulfoxide (DMSO) to a concentration of 80 μM and diluted into the incubation medium to its final assay concentration (20, 40, 80, 160 μM). […] A corresponding volume of ethanol and DMSO were added to control cells for all experiments. […] Both β-galactosidase and CAT reporter activity were measured based on previously used methods (Kitareewan et al, 1996). […]
Transcriptional activity, measured as ^14C-chloramphenicol counts (for measuring CAT activity) or relative luciferase activity (RLU) was quantified for each cell lysate. […]

CC(C)(O)CC[C@@H](O)[C@](C)(O)[C@H]1CC[C@@]2(O)C3=CC(=O)[C@@H]4C[C@@H](O)[C@@H](O)C[C@]4(C)[C@H]3CC[C@]12C [20E, 20-hydroxyecdysone]
20E (inducibility) (10 μM 20E): + ((+) designates a change in transcriptional level that exceeds 2.5-fold)

COC(=O)/C=C(\C)CC/C=C(\C)CC[C@H]1OC1(C)C [JHIII, juvenile hormone III]
MurA + JHIII (JHIII potentiation) (0.1 μM murA + 80 μM JHIII): + ((+) indicates observed potentiation that exceeds 2-fold above the levels observed with ecdysteroid alone)

CC(C)CC[C@@H](O)[C@](C)(O)[C@H]1CC[C@@]2(O)C3=CC(=O)[C@]4(O)C[C@@H](O)[C@@H](O)C[C@]4(C)[C@H]3[C@H](O)C[C@]12C [murA, muristerone A]
MurA (inducibility) (0.1 μM murA): ++
